# According to patent US20240109936A1, “NOVEL M[…] PEPTIDES” (University of Florida Research Foundation, Incorporated, priority 2020, published 2024):
# Where a SMILES comes first, the peptide text is derived from it.
# What was measured:
# mice [1] = assay: Forced swim stress-induced increase in morphine consumption, two-bottle choice assay; format: in vivo, mouse; conditions: orally administered, FIG. 13
# mice [2] = conditions: 3930 alone; place conditioning daily for 2 days; FIG. 33
# Description: For conditioned place preference assay/reinstatement testing are conducted essentially as described for example in Brice-Tutt A C, Wilson L L, Eans S O, Stacy H M, Simons C A, Simpson G G, Coleman J S, Ferracane M J, Aldrich J V, McLaughlin J P: Multifunctional opioid receptor agonism and antagonism by a novel macrocyclic tetrapeptide prevents reinstatement of morphine-seeking behavior. British Journal of Pharmacology, 177(18):4209-4222, 2020. doi: 10.1111/bph.15165.
# mice [3] = assay: Reinstatement of extinguished morphine conditioned place preference (forced swim stress- or morphine-induced); format: in vivo, mouse; conditions: 30 mg/kg, p.o., FIG. 34
# mice [4] = assay: Naloxone precipitated withdrawal (jumping behavior) in morphine-treated mice; format: in vivo, mouse; conditions: five days of morphine injections; 30 mg/kg, p.o. 1 hour prior to naloxone (10 mg/kg, s.c.); FIG. 35
# Description: For naloxone precipitated withdrawal or 2-bottle choice (TBC) assay testing are conducted essentially as described for example in Wilson L L, Harris H M, Brice-Tutt A C, Cirino T J, Eans S O, Stacy H M, Simons C A, Sharma A, Leon J F, Boyer E W, Avery B A, McLaughlin J P, McCurdy C M: Lyophilized Kratom tea as a therapeutic option for opioid dependence. Drug and Alcohol Dependence, 216:108310-108318, 2020. https://doi.org/10.1016/j.drugalcdep.2020.108310; and as follows;
# κ opioid receptor = target: T1, κ opioid receptor (Mus musculus, UniProt P33534); conditions: non-peptide KOR antagonists; cited from earlier work
# T1 construct: host or cells: living animal (CNS), endogenous receptor
# T1 sequence (P33534 whole entry): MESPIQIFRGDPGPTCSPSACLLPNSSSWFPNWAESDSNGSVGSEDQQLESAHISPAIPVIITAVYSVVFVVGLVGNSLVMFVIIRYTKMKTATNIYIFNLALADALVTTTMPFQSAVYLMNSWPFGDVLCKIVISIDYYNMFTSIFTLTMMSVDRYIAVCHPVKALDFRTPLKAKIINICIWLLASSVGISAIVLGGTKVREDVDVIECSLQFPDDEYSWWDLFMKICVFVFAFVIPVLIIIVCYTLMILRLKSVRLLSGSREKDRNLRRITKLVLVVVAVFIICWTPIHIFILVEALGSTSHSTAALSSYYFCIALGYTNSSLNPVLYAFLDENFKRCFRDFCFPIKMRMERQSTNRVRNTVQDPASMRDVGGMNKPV
structure (smiles),measurement,setting,value
"O=C1N[C@H](Cc2ccccc2C(F)(F)F)C(=O)N[C@@H](Cc2ccccc2)C(=O)N2CCC[C@@H]2C(=O)N[C@H]1Cc1ccccc1 [compound 3930, cyclo[Phe-D-Pro-Phe-D-Phe(2-CF3)]] (HELM PEPTIDE1{F.[dP].F.[O=C([C@@H](Cc1ccccc1C(F)(F)F)N[*:1])[*:2]]}$PEPTIDE1,PEPTIDE1,1:R1-4:R2$$$V2.0)",stress-induced increase in consumption of a morphine solution,mice [1],can prevent a stress-induced increase in consumption of a morphine solution
same,conditioned place preference or aversion,mice [2],did not produce conditioned place preference or aversion
same,"stress- (forced swim stress, FSS) induced reinstatement of extinguished morphine-CPP",mice [3]; administered 5 min or 2.5 hr prior to FSS exposure,prevented stress-induced reinstatement of place preference
same,drug-seeking behavior after an additional round of morphine-place conditioning,mice [3]; administered 5 min prior to additional round of morphine-place conditioning,no significant effect on drug-seeking behavior
same,frequency of jumping behavior following administration of naloxone,mice [4],significantly reduced instances of jumping behavior
CC(C)[C@@H](CN1CC[C@@](C)(c2cccc(O)c2)[C@@H](C)C1)NC(=O)[C@H]1Cc2ccc(O)cc2CN1 [JDTic],duration of antagonism,κ opioid receptor,unusually long duration of antagonism
Oc1ccc2c3c1O[C@H]1c4[nH]c5c(c4C[C@@]4(O)[C@@H](C2)N(CC2CC2)CC[C@]314)C[C@@]1(O)[C@H]2Cc3ccc(O)c4c3[C@@]1(CCN2CC1CC1)[C@H]5O4 [nor-binaltorphimine],duration of antagonism,κ opioid receptor,unusually long duration of antagonism
N=C(N)Nc1ccc2[nH]c3c(c2c1)C[C@@]1(O)[C@H]2Cc4ccc(O)c5c4[C@@]1(CCN2CC1CC1)[C@H]3O5 [5-guanidinylnaltrindole],duration of antagonism,κ opioid receptor,unusually long duration of antagonism
